Test results as given in patent EP0808325B1, “[…] […] SERIES FOR […] GABA RECEPTOR” (priority 1994, dated 1996).

Legend:
[1] = target: GR complex; experiment: modulation of [35S]TBPS binding in rat cerebral cortex P2 homogenate; parameters: species or system Sprague-Dawley rats; IMAX: unit not given here; details: for IC50: concentration of compounds to inhibit 50% of control [35S]TBPS binding, 2 nM [35S]TBPS, 25°C, 90 minutes; for IMAX: maximum inhibition of [35S]TBPS binding, I* = Inactive
In short: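 Rat (male Sprague-Dawley) cortical P2 homogenate, 0.5 mg protein, in 50 mM Na/K phosphate pH 7.4, 200 mM NaCl, incubated 90 min at 25° C with 2 nM [35S]TBPS plus GABA and (+)bicuculline, compounds added in DMSO. Filter-bound radioactivity counted; nonspecific binding defined with […].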

[2] = system: metrazol induced convulsions; experiment: animal or person; type: in vivo, mice; details: IP, 10 mg/kg
[3] = system: mice; experiment: elevated plus-maze; type: in vivo, N.I.H. Swiss-Webster mice; details: IP
From the text: The theoretical basis for the elevated plus-maze test is similar to that of the light/dark transition test. As described by Pellow et al., J. Neurosci. Meth 14:149-167 (1985), the elevated plus-maze apparatus is designed to utilize the mice's natural aversion to open spaces. The apparatus consists of two open-arms and two enclosed-arms. The elevated plus-maze test allows for two measures of anxiety, the number of entries into the open-arms and the time spent on the open-arms, both expressed as a percentage of the total number of entries and time spent in/on both the open-arms and enclosed-arms.
Male N.I.H. Swiss-Webster mice (Harlan, Indianapolis, IN) weighing 15-20 g were housed four per cage in polyethylene cages with sawdust bedding. The colony room was environmentally controlled (22°C) with a 12 hr light/dark cycle (0600-1800 hr). Food and water were available ad libitum, except during testing. The experiments were run from 0700-1500 hr and groups were counterbalanced for time of day effects. Mice were only administered drug or vehicle once.
The method used was previously described (Lister, Psychopharmacol. 92:180-185 (1987)). The apparatus included two open arms perpendicular to two enclosed arms elevated 50 cm from the floor. Each arm was 50 cm long and the walls of the enclosed arms were 40 cm tall. The maze was made completely of black plexiglass. Incandescent 200 W light bulbs were above each of the open arms to produce a strong contrast between the open arms and the enclosed arms.
Ten minutes after an injection, the N.I.H. Swiss-Webster mice were placed in the center of the plus-maze facing an open arm. During the 5 min test period, the number of entries onto the open arms and the enclosed arms, and the time spent in the open arms and enclosed arms were measured. All four paws had to be within an arm for the dependent variable to be measured. Therefore, the time spent in the center of the maze is not counted, so the total time spent in the open arms and the enclosed arms may not equal 5 min. […]

[4] = system: rats; experiment: Geller-Seifter conflict test; type: in vivo, Sprague-Dawley rats
From the text: This animal model of human anxiety utilizes a conditioned state of conflict in rats to ascertain the anxiolytic properties of drugs. Rats are conditioned to bar press for positive reinforcement under two schedules of behavior (Geller and Seifter, Psychopharmacologia 1:482-492 (1960)). The first includes bar pressing under a […] schedule without punishment. The second component is a fixed ratio schedule with each bar press resulting in a positive reinforcement and a punishment. The punished component produces a state of conflict within the animal. […] An anxiolytic response would increase the punished responding without affecting the unpunished responding.
Male albino Sprague-Dawley rats (Charles River Labs, Wilmington, MA) weighing 250-300 g were used for conflict experiments and were kept on a restricted diet of Purina Lab Chow food pellets with water available at all times to maintain body weight at 85% of their free-feeding young adult levels. Rats were housed individually under a 12-hour light-dark cycle with lights on from 0700-1900.
The anti-anxiety (punishment-lessening) and response depressant effects of […] and […] were measured in rats by the conflict test of Geller and Seifter (1960). In this 63-min test, hungry rats perform a lever-press response to obtain a sweetened milk reward. The reinforcement schedule consists of punishment and nonpunishment components, alternating approximately every 15 min. Rats were trained in test chambers (Coulbourn instruments) with a lever mounted in one wall, a small dipper that delivered the 0.1-mL milk reward (1 part Eagle condensed : milk 2 parts water), and a metal grid floor through which the foot-shock punishment was administered. A DEC PDP 11/73 minicomputer running SKED (State Systems) was used for programming and recording.
Rates initially learned to respond on a continuous reinforcement schedule and progressed rapidly to 30-sec, 1-min, and 2-min variable interval (VI) schedules. On the continuous reinforcement schedule, rats received milk reward following every lever press; on the VI schedules, milk rewards were available at infrequent and variable intervals, eventually at an average of once every 2 min. Four 3-min "conflict" periods were then introduced on the unpunished VI baseline; the first started after 3 min of VI performance and the others were alternated between 12-min periods of VI responding. During conflict periods, which were signalled by the presentation of a light and a tone, the continuous reinforcement schedule was again in force and each lever press delivered both a milk reward and a brief ([…]) foot-shock punishment. Shock intensity was 0.2 mA initially, and.was increased daily in increments of 0.02 mA in order to gradually suppress lever pressing to 5 responses or less per conflict period. This training took 4-6 weeks, after which stable low rates of response were observed during conflict periods and stable high rates in the nonpunishment periods. Drug-induced increases in the rate of punished responses were taken as an index of antianxiety activity, while decreases in the rate of unpunished responses were taken as an index of response depression or sedation.

[5] = system: mice; experiment: loss-of-righting reflex (anesthetic activity); type: in vivo; parameters: unit not given here; details: iv, micronizing solution
Protocol: The compounds of and used in the invention can also be used for anesthetic indications at high doses. However, the preferred route of administration to induce anesthesia is intravenous (i.v.) administration. In animals, a drug's anesthetic properties is measured by the drug's ability to produce a loss-of-righting reflex. The loss-of-righting reflex is defined as the inability of an animal to right itself within 30 seconds when placed on its back. Mice were administered drug i.v. in the lateral tail vein. Following administration, mice were placed on their backs and observed for loss-of-righting reflex.

[6] = 50% hpbcd, 10 minutes prior to metrazol (85 mg/kg)

## C=C[C@@]1(O)CC[C@@]2(C)[C@@H](CC[C@@H]3[C@@H]2CC[C@]2(C)[C@@H](C(C)=O)CC[C@@H]32)C1 [3β-ethenyl-3α-hydroxy-5α-pregnan-20-one, 3β-Ethenyl-3α-hydroxy-5α-pregnan-20-one]
[1]; no unit printed
  IC50: 0.113 µM
[1]
  IMAX: 88
[2]; [6]
  % Protected: 100%
[3]; 50% hpbcd, 5 mg/kg
  % Control: 154.3%
[4]; po, 50% hpbcd, 12 mg/kg
  Geller/Seifter (% of control): 1092.3 % of control

## CC(=O)[C@H]1CC[C@H]2[C@@H]3CC[C@@H]4C[C@@](O)(C(F)(F)F)CC[C@@H]4[C@H]3CC[C@]12C [3α-Hydroxy-3β-trifluoromethyl-5β-19-norpregnan-20-one]
[1]; no unit printed
  IC50: 0.076 µM
[1]
  IMAX: 100
[2]; [6]
  % Protected: 100%
[3]; 50% hpbcd, 10 mg/kg
  % Control: 173.8%
[4]; sc, 50% hpbcd, 4 mg/kg
  Geller/Seifter (% of control): 1073.1 % of control

## CC(=O)OCC(=O)[C@H]1CC[C@H]2[C@@H]3CC[C@@H]4C[C@@](O)(C(F)(F)F)CC[C@]4(C)[C@H]3CC[C@]12C [3α,21-Dihydroxy-3β-trifluoromethyl-5β-pregnan-20-one, 21-acetate]
[1]; no unit printed
  IC50: 0.37 µM
[1]
  IMAX: 88
[2]; [6]
  % Protected: 62.5%
[3]; 50% hpbcd, 5 mg/kg
  % Control: 143.3%
[4]; sc, 50% hpbcd, 8 mg/kg
  Geller/Seifter (% of control): 882.8 % of control

## C#C[C@@]1(O)CC[C@@]2(C)[C@@H](CC[C@@H]3[C@@H]2CC[C@]2(C)[C@@H](C(C)=O)CC[C@@H]32)C1 [3α-hydroxy-3β-ethynyl-5α-pregnan-20-one, 3β-Ethynyl-3α-hydroxy-5α-pregnan-20-one]
[1]; no unit printed
  IC50: 0.053 µM
[1]
  IMAX: 91
[2]; [6]
  % Protected: 87.5%
[3]; 50% hpbcd, 10 mg/kg
  % Control: 213%
[4]; sc, 50% hpbcd, 8 mg/kg
  Geller/Seifter (% of control): 830.2 % of control

## CC(=O)[C@H]1CC[C@H]2[C@@H]3CC[C@H]4C[C@H](O)[C@@H](F)C[C@]4(C)[C@H]3CC[C@]12C [2β-Fluoro-3α-hydroxy-5α-pregnan-20-one]
[5]; 5 mg/kg
  Loss-of-Righting Reflex: 100

## C[C@]12CC[C@](O)(C(F)(F)F)C[C@H]1CC[C@@H]1[C@@H]2CC[C@]2(C)[C@@H](C(=O)COC(=O)CCC(=O)[O-])CC[C@@H]12.[Na+] [3α,21-Dihydroxy-3β-trifluoromethyl-5β-pregnan-20-one, 21-hemisuccinate, sodium salt]
[1]; unit inferred, sodium salt
  IC50: 0.712 µM
[1]
  IMAX: 99
[2]; water
  % Protected: 62.5%
[3]; water, 20 mg/kg
  % Control: 172.8%
[4]; po, water, 8 mg/kg
  Geller/Seifter (% of control): 840.0 % of control

## CC(=O)[C@H]1CC[C@H]2[C@@H]3CC[C@H]4C[C@H](O)CC[C@]4(C)C3=CC[C@]12C [3α-Hydroxy-5α-pregn-9-en-20-one]
[5]; 10 mg/kg
  Loss-of-Righting Reflex: 100

## CC(=O)[C@H]1CC[C@H]2[C@@H]3CC[C@@H]4C[C@@](O)(C#CCl)CC[C@]4(C)[C@H]3CC[C@]12C [3β-(Chloroethynyl)-3α-hydroxy-5β-prognan-20-one]
[5]; 20 mg/kg
  Loss-of-Righting Reflex: 100

## C#C[C@@]1(O)CC[C@@]2(C)[C@H](CC[C@@H]3[C@@H]2CC[C@]2(C)[C@@H](C(=O)COC(=O)CCC(=O)O)CC[C@@H]32)C1 [3α,21-dihydroxy-3β-ethynyl-5β-pregnan-20-one 21 hemisuccinat] [3α,21-dihydroxy-3β-ethynyl-5β-pregnan-20-one 21 hemisuccinate]
[1]
  IMAX: 82
[2]; water
  % Protected: 50%
[3]; 50% hpbcd, 10 mg/kg
  % Control: 164.2%
[4]; po, water, 16 mg/kg
  Geller/Seifter (% of control): 1350.0 % of control

## CC(=O)[C@H]1CC[C@H]2[C@@H]3CC[C@H]4C[C@](C)(O)CC[C@]4(C)[C@H]3CC[C@]12C [3α-hydroxy-3β-methyl-5α-pregnan-20-one]
[1]; no unit printed
  IC50: 0.062 µM
[1]
  IMAX: 97
[2]; [6]
  % Protected: 100%
[3]; 50% hpbcd, 5 mg/kg
  % Control: 165.6%
[4]; sc, 50% hpbcd, 4 mg/kg
  Geller/Seifter (% of control): 1384.6 % of control

## C[C@]12CC[C@H]3[C@@H](CC[C@@H]4C[C@@](O)(C(F)(F)F)CC[C@@H]43)[C@@H]1CC[C@@H]2C(=O)COC(=O)CCC(=O)[O-].[Na+] [3α,21-dihydroxy-3β-trifluoromethyl-19-nor-5β-pregnan-20-one, 21-hemisuccinate, sodium salt]
[1]; no unit printed
  IC50: 0.53 µM
[1]
  IMAX: 101
[2]; water
  % Protected: 50%
[3]; water, 20 mg/kg
  % Control: 161.1%
[4]; po, water, 8 mg/kg
  Geller/Seifter (% of control): 2493.4 % of control

## CC(=O)[C@H]1CC[C@H]2[C@@H]3CC[C@@H]4C[C@@](O)(C(F)(F)F)CC[C@]4(C)[C@H]3CC[C@]12C [3α-Hydroxy-3β-trifluoromethyl-5β-pregnan-20-one]
[1]; no unit printed
  IC50: 0.211 µM
[1]
  IMAX: 98
[2]; [6]
  % Protected: 62.5%
[3]; 50% hpbcd, 20 mg/kg
  % Control: 197.6%
[4]; sc, 50% hpbcd, 4 mg/kg
  Geller/Seifter (% of control): 663.2 % of control

## C[C@]12CC[C@](O)(C(F)(F)F)C[C@H]1CC[C@@H]1[C@@H]2CC[C@]2(C)[C@@H](C(=O)CO)CC[C@@H]12 [3α,21 Dihydroxy-3β-trifluoromethyl-5β-pregnan-20-one]
[1]; no unit printed
  IC50: 0.354 µM
[1]
  IMAX: 102
[2]; [6]
  % Protected: 50%
[3]; 50% hpbcd, 10 mg/kg
  % Control: 237%
[4]; sc, 50% hpbcd, 16 mg/kg
  Geller/Seifter (% of control): 982.4 % of control

## CC(=O)[C@H]1CC[C@H]2[C@@H]3CC[C@H]4C[C@@](O)(CF)CC[C@]4(C)[C@H]3CC[C@]12C [3β-Fluoromethyl-3α-hydroxy-5α-pregnan-20-one]
[1]; no unit printed
  IC50: 0.2 µM
[1]
  IMAX: 77
[2]; [6]
  % Protected: 14.3%
[3]; 50% hpbcd, 20 mg/kg
  % Control: 150.7%
[4]; sc, 50% hpbcd, 8 mg/kg
  Geller/Seifter (% of control): 1005 % of control
